Each molecule was assayed on KALLIKREIN (assay: kallikrein protease inhibition assay). Settings: not given.
Type: biochemical
Molecule N=C(N)c1ccc(Cn2c(=O)[nH]c3ccc(OC4CCN(C(=N)N)CC4)cc32)cc1 [Example 1] has an IC50 of 9.54 µM. CC(C)COC(=O)Cn1c(=O)n(Cc2ccc3ccc(C(=N)N)cc3c2)c2cc(OC3CCN(C(=N)N)CC3)ccc21 [Example 13] showed an IC50 of 1.25 µM. With N=C(N)c1ccc2ccc(Cn3c(=O)n(CC(=O)O)c4ccc(OC5CCN(C(=N)N)CC5)cc43)cc2c1 [Example 15] the IC50 was 9.22 µM. In the case of CC(=N)N1CCC(Oc2ccc3c(c2)n(Cc2ccc4ccc(C(=N)N)cc4c2)c(=O)n3CC(=O)O)CC1 [Example 14], the IC50 is reported as 2.95 µM. Work on CC(C)n1c(=O)n(Cc2ccc3ccc(C(=N)N)cc3c2)c2cc(OC3CCN(C(=N)N)CC3)ccc21 [Example 9] yielded an IC50 of 0.392 µM. With CC(=N)N1CCC(Oc2ccc3c(c2)n(Cc2ccc4ccc(C(=N)N)cc4c2)c(=O)n3C(C)C)CC1 [Example 8] the IC50 was 0.349 µM.

These molecules were tested against prothrombinase complex (Homo sapiens, UniProt P00742) (assay: prothrombinase inhibition assay (IIASE), plasma free system). Settings: factor Xa 0.5 nM, factor Va 2 nM, phospholipid, Chromozym TH.
prothrombinase complex, sequence (P00742 235-488 limits assumed): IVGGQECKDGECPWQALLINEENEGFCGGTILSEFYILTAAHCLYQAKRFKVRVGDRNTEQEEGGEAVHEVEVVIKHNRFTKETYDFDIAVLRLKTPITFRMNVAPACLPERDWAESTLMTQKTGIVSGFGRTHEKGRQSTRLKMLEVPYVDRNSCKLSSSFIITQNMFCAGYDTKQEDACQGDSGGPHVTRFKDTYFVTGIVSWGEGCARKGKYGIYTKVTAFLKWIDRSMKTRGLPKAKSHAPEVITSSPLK
prothrombinase complex, sequence (P00742 41-179 partner limits assumed): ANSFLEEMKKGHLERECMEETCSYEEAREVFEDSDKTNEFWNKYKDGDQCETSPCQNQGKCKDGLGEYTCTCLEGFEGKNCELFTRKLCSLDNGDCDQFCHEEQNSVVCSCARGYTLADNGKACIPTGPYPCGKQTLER
prothrombinase complex, sequence (P12259 29-737 partner limits assumed): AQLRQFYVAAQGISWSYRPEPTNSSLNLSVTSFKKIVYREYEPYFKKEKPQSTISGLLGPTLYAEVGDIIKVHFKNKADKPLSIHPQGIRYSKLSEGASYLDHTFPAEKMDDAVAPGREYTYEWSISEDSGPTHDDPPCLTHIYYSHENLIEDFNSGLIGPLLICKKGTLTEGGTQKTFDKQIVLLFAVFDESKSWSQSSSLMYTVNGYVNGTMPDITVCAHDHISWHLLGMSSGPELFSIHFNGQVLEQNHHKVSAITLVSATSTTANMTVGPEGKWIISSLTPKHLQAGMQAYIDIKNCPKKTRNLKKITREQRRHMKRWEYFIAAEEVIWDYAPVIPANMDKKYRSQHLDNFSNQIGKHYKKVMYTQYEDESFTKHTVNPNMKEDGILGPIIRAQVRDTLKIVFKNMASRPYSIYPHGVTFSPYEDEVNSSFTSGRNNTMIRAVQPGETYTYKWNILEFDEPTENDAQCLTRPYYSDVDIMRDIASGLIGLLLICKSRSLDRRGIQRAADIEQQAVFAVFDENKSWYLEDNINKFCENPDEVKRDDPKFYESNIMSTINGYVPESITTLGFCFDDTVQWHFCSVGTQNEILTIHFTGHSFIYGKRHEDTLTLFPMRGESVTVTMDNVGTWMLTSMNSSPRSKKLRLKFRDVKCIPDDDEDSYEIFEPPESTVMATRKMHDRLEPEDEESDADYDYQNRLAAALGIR
prothrombinase complex, sequence (P12259 1574-2224 partner limits assumed): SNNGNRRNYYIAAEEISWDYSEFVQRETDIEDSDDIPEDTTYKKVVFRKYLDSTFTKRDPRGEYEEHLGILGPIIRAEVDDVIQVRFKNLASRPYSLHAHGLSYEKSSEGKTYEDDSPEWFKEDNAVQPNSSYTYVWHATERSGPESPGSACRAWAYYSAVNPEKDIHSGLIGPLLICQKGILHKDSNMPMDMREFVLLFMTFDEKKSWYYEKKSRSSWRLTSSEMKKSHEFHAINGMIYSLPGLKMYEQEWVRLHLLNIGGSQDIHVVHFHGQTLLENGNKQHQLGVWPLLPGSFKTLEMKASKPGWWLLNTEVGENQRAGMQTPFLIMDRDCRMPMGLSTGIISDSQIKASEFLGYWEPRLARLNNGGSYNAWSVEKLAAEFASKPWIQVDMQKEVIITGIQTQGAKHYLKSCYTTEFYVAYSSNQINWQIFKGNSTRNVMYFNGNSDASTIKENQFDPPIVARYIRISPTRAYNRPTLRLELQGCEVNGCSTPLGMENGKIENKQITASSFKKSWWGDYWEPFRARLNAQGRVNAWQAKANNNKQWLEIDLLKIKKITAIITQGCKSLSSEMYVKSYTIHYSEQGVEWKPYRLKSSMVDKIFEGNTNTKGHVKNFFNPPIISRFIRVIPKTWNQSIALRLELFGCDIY
Type: biochemical
Description: (§1) The compounds of the present invention are dissolved in buffer to give solutions containing concentrations such that assay concentrations range from about 0 to about 100 μM. In the assays for thrombin, prothrombinase and factor Xa, a synthetic chromogenic substrate is added to a solution containing test compound and the enzyme of interest and the residual catalytic activity of that enzyme is determined spectrophotometrically. The IC50 of a compound is determined from the substrate turnover. The IC50 is the concentration of test compound giving about 50% inhibition of the substrate turnover.
The prothrombinase inhibition assay was performed in a plasma free system with modifications to the method described by Sinha, U. et al., Thromb. Res., 75, 427-436 (1994). Specifically, the activity of the prothrombinase complex was determined by measuring the time course of thrombin generation using the p-nitroanilide substrate Chromozym TH. The assay consists of preincubation (5 minutes) of selected compounds to be tested as inhibitors with the complex formed from factor Xa (0.5 nM), factor Va (2 nM), phosphatidyl serine:phosphatidyl choline (25:75, 20 μM) in 20 mM Tris.HCl buffer, pH 7.5, containing 0.15 M NaCl, 5 mM CaCl2 and 0.1% bovine serum albumin. Aliquots from the complex-inhibitor mixture were added to prothrombin (1 nM) and Chromozym TH (0.1 mM). The rate of substrate cleavage was monitored at 405 nm for two minutes. Eight different concentrations of inhibitor were assayed in duplicate. A standard curve of thrombin generation by an equivalent amount of untreated complex was used for determination of percent inhibition.
CC(C)COC(=O)Cn1c(=O)n(Cc2ccc3ccc(C(=N)N)cc3c2)c2cc(OC3CCN(C(=N)N)CC3)ccc21 [Example 13] showed an IC50 of 0.25 µM. N=C(N)c1ccc2ccc(Cn3c(=O)n(CC(=O)O)c4ccc(OC5CCN(C(=N)N)CC5)cc43)cc2c1 [Example 15] was tested, and the IC50 was 4.22 µM. In the case of CC(=N)N1CCC(Oc2ccc3c(c2)n(Cc2ccc4ccc(C(=N)N)cc4c2)c(=O)n3CC(=O)O)CC1 [Example 14], the IC50 is reported as 0.481 µM. With CC(C)n1c(=O)n(Cc2ccc3ccc(C(=N)N)cc3c2)c2cc(OC3CCN(C(=N)N)CC3)ccc21 [Example 9] the IC50 was 0.827 µM. For CC(=N)N1CCC(Oc2ccc3c(c2)n(Cc2ccc4ccc(C(=N)N)cc4c2)c(=O)n3C(C)C)CC1 [Example 8], the IC50 was 0.425 µM.

The molecules below were run against APC (Homo sapiens, UniProt P04070) (assay: APC protease inhibition assay). Settings: not given.
APC, sequence (P04070 212-450 limits assumed): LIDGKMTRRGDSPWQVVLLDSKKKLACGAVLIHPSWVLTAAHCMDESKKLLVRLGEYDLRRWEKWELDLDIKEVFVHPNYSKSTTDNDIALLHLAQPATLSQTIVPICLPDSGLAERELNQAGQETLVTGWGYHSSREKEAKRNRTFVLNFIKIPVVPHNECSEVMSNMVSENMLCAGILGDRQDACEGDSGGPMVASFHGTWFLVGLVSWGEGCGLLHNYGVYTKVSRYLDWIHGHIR
APC, sequence (P04070 43-197 partner limits assumed): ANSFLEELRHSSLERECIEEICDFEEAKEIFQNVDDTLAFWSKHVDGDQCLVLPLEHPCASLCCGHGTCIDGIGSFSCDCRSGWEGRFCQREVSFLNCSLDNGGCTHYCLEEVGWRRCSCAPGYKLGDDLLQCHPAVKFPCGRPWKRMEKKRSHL
Type: biochemical
In the case of N=C(N)c1ccc(Cn2c(=O)[nH]c3ccc(OC4CCN(C(=N)N)CC4)cc32)cc1 [Example 1], the IC50 is reported as 99.2 µM. CC(C)COC(=O)Cn1c(=O)n(Cc2ccc3ccc(C(=N)N)cc3c2)c2cc(OC3CCN(C(=N)N)CC3)ccc21 [Example 13] was tested, and the IC50 was 6.51 µM. Work on N=C(N)c1ccc2ccc(Cn3c(=O)n(CC(=O)O)c4ccc(OC5CCN(C(=N)N)CC5)cc43)cc2c1 [Example 15] yielded an IC50 of 49.8 µM. For CC(=N)N1CCC(Oc2ccc3c(c2)n(Cc2ccc4ccc(C(=N)N)cc4c2)c(=O)n3CC(=O)O)CC1 [Example 14], the IC50 was 19.3 µM. For CC(C)n1c(=O)n(Cc2ccc3ccc(C(=N)N)cc3c2)c2cc(OC3CCN(C(=N)N)CC3)ccc21 [Example 9], the IC50 was 1.85 µM. CC(=N)N1CCC(Oc2ccc3c(c2)n(Cc2ccc4ccc(C(=N)N)cc4c2)c(=O)n3C(C)C)CC1 [Example 8] showed an IC50 of 2.48 µM.

These molecules were tested against TPA (Homo sapiens, UniProt P00750) (assay: TPA protease inhibition assay). Settings: not given.
TPA, sequence (P00750 36-562, species assumed): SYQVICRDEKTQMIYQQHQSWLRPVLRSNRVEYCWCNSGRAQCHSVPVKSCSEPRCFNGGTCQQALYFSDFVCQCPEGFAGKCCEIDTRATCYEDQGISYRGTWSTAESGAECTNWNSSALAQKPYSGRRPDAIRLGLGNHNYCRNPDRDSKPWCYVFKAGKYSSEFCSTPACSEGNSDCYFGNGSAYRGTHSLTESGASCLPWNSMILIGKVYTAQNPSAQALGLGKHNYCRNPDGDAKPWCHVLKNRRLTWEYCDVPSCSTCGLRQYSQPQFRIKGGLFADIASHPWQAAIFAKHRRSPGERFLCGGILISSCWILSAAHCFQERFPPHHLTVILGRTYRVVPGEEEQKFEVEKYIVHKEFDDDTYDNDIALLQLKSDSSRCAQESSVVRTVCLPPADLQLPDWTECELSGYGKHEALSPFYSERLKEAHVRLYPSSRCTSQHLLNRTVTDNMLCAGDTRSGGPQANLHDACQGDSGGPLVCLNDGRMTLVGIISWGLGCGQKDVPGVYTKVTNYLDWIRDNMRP
Type: biochemical
CC(C)COC(=O)Cn1c(=O)n(Cc2ccc3ccc(C(=N)N)cc3c2)c2cc(OC3CCN(C(=N)N)CC3)ccc21 [Example 13] gave an IC50 of 42.8 µM. In the case of N=C(N)c1ccc2ccc(Cn3c(=O)n(CC(=O)O)c4ccc(OC5CCN(C(=N)N)CC5)cc43)cc2c1 [Example 15], the IC50 is reported as 169 µM. Molecule CC(=N)N1CCC(Oc2ccc3c(c2)n(Cc2ccc4ccc(C(=N)N)cc4c2)c(=O)n3CC(=O)O)CC1 [Example 14] has an IC50 of 88.1 µM. CC(C)n1c(=O)n(Cc2ccc3ccc(C(=N)N)cc3c2)c2cc(OC3CCN(C(=N)N)CC3)ccc21 [Example 9] was tested, and the IC50 was 92.8 µM. CC(=N)N1CCC(Oc2ccc3c(c2)n(Cc2ccc4ccc(C(=N)N)cc4c2)c(=O)n3C(C)C)CC1 [Example 8] was tested, and the IC50 was 77.8 µM.

The molecules below were run against factor Xa (Homo sapiens, UniProt P00742) (assay: factor Xa amidolytic assay (XA)). Settings: substrate S-2765, pH 7.5, room temperature.
factor Xa, sequence (P00742 235-488 limits assumed): as the sequence (P00742 235-488 limits assumed) above
factor Xa, sequence (P00742 41-179 partner limits assumed): as the sequence (P00742 41-179 partner limits assumed) above
Type: biochemical
Description: as §1
(§2) The factor Xa and thrombin assays were performed at room temperature, in 0.02 M Tris.HCl buffer, pH 7.5, containing 0.15 M NaCl. The rates of hydrolysis of the para-nitroanilide substrate S-2765 (Chromogenix) for factor Xa, and the substrate Chromozym TH (Boehringer Mannheim) for thrombin following preincubation of the enzyme with inhibitor for 5 minutes at room temperature, and were determined using the Softmax 96-well plate reader (Molecular Devices), monitored at 405 nm to measure the time dependent appearance of p-nitroaniline.
With N=C(N)c1ccc(Cn2c(=O)[nH]c3ccc(OC4CCN(C(=N)N)CC4)cc32)cc1 [Example 1] the IC50 was 9.22 µM. For CC(C)COC(=O)Cn1c(=O)n(Cc2ccc3ccc(C(=N)N)cc3c2)c2cc(OC3CCN(C(=N)N)CC3)ccc21 [Example 13], the IC50 was 0.0178 µM. Molecule N=C(N)c1ccc2ccc(Cn3c(=O)n(CC(=O)O)c4ccc(OC5CCN(C(=N)N)CC5)cc43)cc2c1 [Example 15] has an IC50 of 0.0671 µM. With CC(=N)N1CCC(Oc2ccc3c(c2)n(Cc2ccc4ccc(C(=N)N)cc4c2)c(=O)n3CC(=O)O)CC1 [Example 14] the IC50 was 0.00815 µM. CC(C)n1c(=O)n(Cc2ccc3ccc(C(=N)N)cc3c2)c2cc(OC3CCN(C(=N)N)CC3)ccc21 [Example 9] was tested, and the IC50 was 0.0498 µM. CC(=N)N1CCC(Oc2ccc3c(c2)n(Cc2ccc4ccc(C(=N)N)cc4c2)c(=O)n3C(C)C)CC1 [Example 8] was tested, and the IC50 was 0.0286 µM.

Each molecule was assayed against PLASMIN (Homo sapiens, UniProt P00747) (assay: plasmin protease inhibition assay). Settings: not given.
PLASMIN, sequence (P00747 581-810 limits assumed, species assumed): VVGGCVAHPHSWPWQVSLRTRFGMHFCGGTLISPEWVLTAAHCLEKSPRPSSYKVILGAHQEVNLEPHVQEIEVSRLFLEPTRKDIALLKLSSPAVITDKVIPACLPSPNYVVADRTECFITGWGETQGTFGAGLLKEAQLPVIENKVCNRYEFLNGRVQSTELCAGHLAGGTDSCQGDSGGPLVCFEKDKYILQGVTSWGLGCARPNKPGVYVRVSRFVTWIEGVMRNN
PLASMIN, sequence (P00747 97-580 partner limits assumed, species assumed): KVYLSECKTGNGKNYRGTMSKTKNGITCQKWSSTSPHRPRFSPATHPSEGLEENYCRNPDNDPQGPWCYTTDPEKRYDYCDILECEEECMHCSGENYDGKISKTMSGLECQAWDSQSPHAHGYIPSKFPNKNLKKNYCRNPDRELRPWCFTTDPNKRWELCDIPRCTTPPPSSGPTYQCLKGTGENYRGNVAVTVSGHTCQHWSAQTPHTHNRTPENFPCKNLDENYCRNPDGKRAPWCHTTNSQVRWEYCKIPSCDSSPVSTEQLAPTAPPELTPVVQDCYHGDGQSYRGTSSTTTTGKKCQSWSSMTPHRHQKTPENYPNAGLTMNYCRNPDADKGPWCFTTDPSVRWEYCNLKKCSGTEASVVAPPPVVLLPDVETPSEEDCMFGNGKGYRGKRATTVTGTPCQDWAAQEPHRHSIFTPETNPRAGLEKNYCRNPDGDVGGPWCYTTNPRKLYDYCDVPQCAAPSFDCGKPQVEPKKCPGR
Type: biochemical
CC(C)COC(=O)Cn1c(=O)n(Cc2ccc3ccc(C(=N)N)cc3c2)c2cc(OC3CCN(C(=N)N)CC3)ccc21 [Example 13] was tested, and the IC50 was 2.71 µM. N=C(N)c1ccc2ccc(Cn3c(=O)n(CC(=O)O)c4ccc(OC5CCN(C(=N)N)CC5)cc43)cc2c1 [Example 15] gave an IC50 of 17 µM. With CC(=N)N1CCC(Oc2ccc3c(c2)n(Cc2ccc4ccc(C(=N)N)cc4c2)c(=O)n3CC(=O)O)CC1 [Example 14] the IC50 was 6.04 µM. For CC(C)n1c(=O)n(Cc2ccc3ccc(C(=N)N)cc3c2)c2cc(OC3CCN(C(=N)N)CC3)ccc21 [Example 9], the IC50 was 2.23 µM. CC(=N)N1CCC(Oc2ccc3c(c2)n(Cc2ccc4ccc(C(=N)N)cc4c2)c(=O)n3C(C)C)CC1 [Example 8] gave an IC50 of 3.5 µM.

These molecules were tested against T1, TRYPSIN (Bos taurus, UniProt P00760) (assay: trypsin protease inhibition assay). Settings: not given.
T1 construct: gene PRSS1
T1 sequence (P00760 24-246): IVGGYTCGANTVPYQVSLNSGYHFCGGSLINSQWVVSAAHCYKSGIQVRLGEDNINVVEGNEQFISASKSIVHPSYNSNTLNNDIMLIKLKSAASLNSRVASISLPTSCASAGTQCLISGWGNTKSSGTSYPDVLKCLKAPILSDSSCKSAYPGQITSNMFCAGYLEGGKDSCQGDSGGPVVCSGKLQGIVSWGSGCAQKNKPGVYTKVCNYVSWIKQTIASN
Type: biochemical
N=C(N)c1ccc(Cn2c(=O)[nH]c3ccc(OC4CCN(C(=N)N)CC4)cc32)cc1 [Example 1] gave an IC50 of 21.8 µM. With CC(C)COC(=O)Cn1c(=O)n(Cc2ccc3ccc(C(=N)N)cc3c2)c2cc(OC3CCN(C(=N)N)CC3)ccc21 [Example 13] the IC50 was 0.0441 µM. Molecule N=C(N)c1ccc2ccc(Cn3c(=O)n(CC(=O)O)c4ccc(OC5CCN(C(=N)N)CC5)cc43)cc2c1 [Example 15] has an IC50 of 0.163 µM. In the case of CC(=N)N1CCC(Oc2ccc3c(c2)n(Cc2ccc4ccc(C(=N)N)cc4c2)c(=O)n3CC(=O)O)CC1 [Example 14], the IC50 is reported as 0.192 µM. Work on CC(C)n1c(=O)n(Cc2ccc3ccc(C(=N)N)cc3c2)c2cc(OC3CCN(C(=N)N)CC3)ccc21 [Example 9] yielded an IC50 of 0.392 µM. For CC(=N)N1CCC(Oc2ccc3c(c2)n(Cc2ccc4ccc(C(=N)N)cc4c2)c(=O)n3C(C)C)CC1 [Example 8], the IC50 was 0.349 µM.

These molecules were tested against thrombin (Homo sapiens, UniProt P00734) (assay: thrombin amidolytic assay (IIA)). Settings: substrate Chromozym TH, pH 7.5, room temperature.
Type: biochemical
Description: as §1, §2
N=C(N)c1ccc(Cn2c(=O)[nH]c3ccc(OC4CCN(C(=N)N)CC4)cc32)cc1 [Example 1] gave an IC50 of 333 µM. For CC(C)COC(=O)Cn1c(=O)n(Cc2ccc3ccc(C(=N)N)cc3c2)c2cc(OC3CCN(C(=N)N)CC3)ccc21 [Example 13], the IC50 was 59.9 µM. In the case of CC(C)n1c(=O)n(Cc2ccc3ccc(C(=N)N)cc3c2)c2cc(OC3CCN(C(=N)N)CC3)ccc21 [Example 9], the IC50 is reported as 14.9 µM. For CC(=N)N1CCC(Oc2ccc3c(c2)n(Cc2ccc4ccc(C(=N)N)cc4c2)c(=O)n3C(C)C)CC1 [Example 8], the IC50 was 30.2 µM.
